Drawing on PubChem BioAssay (NCI), this text covers TGI and GI50 for 8 molecules.

Some test systems named below: HOP-18 NSCLC; KM12 colon; M19-MEL melanoma; OVCAR-3 ovarian; PC-3 prostate; RXF 393 renal; SF-295 CNS; SNB-19 CNS; SR leukemia; U251 CNS.
Holding throughout (test): DTP human tumour cell line panel, 48 h

Several values for one entry are separate records, joined by “and”; a condition that tells them apart may be missing. Equal entries are not always repeated.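 Growth conditions: 96-well plates. Treatment: test compound, 48 hours, 5 concentrations. Analysis: linear interpolation between bracketing concentrations; unreached endpoints set to highest concentration. The concentration for 50% growth inhibition is given as GI50. TGI: total growth inhibition.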

Broadly, the TGI is the concentration at which net growth stops. As a reminder, the GI50 is the concentration giving 50% growth inhibition.

Consider `O=C(NC(=O)c1c(F)cccc1F)Nc1cccc(Oc2ncc(Cl)cn2)c1`, for which the TGI is > 100 µM in the assay with HOP-18 NSCLC; > 100 µM in the assay on KM12 colon; > 100 µM with M19-MEL melanoma; > 100 µM with OVCAR-3 ovarian; > 100 µM with PC-3 prostate; 79.5 µM in the assay on RXF 393 renal. Moreover, the TGI in the assay with SF-295 CNS is > 85 µM; with SNB-19 CNS, > 86.3 µM; in the assay with SR leukemia it was > 73.8 µM; in the assay with U251 CNS, > 83.6 µM.
As for `CNC(=O)OCc1nc(SSC(C)(C)C)n(C)c1COC(=O)NC`, the TGI is 10.8 µM in the assay on HOP-18 NSCLC; 38.8 µM in the assay with KM12 colon; 13.6 µM in the assay on M19-MEL melanoma; 4.81 µM in the assay with OVCAR-3 ovarian; 21 µM in the assay with PC-3 prostate; 2.84 µM with RXF 393 renal. In addition, the TGI with SF-295 CNS came to 31.7 µM; with SNB-19 CNS, 33.9 µM; with SR leukemia, 5.54 µM; in the assay with U251 CNS, 25.6 µM.
As for `Cc1cc(N(CC(C)Br)CC(C)Br)ccc1N=Nc1ccccc1C(=O)O` (stereo unspecified), the TGI with HOP-18 NSCLC is 8.29 µM; with KM12 colon, 27.4 µM; in the assay with M19-MEL melanoma, 29 µM; with OVCAR-3 ovarian it was 47.2 µM; in the assay with PC-3 prostate it was 30 µM; with RXF 393 renal it was 4.3 µM. Also, the total growth inhibition concentration (TGI) in the assay with SF-295 CNS was 6.33 µM; in the assay with SNB-19 CNS, 23.5 µM; with SR leukemia, > 40.7 µM; with U251 CNS it was 22 µM.
Consider `Nc1ncnc2c1ncn2C1C=C(CO)C(O)C1O` (stereo unspecified), for which the TGI in the assay with HOP-18 NSCLC is > 100 µM; with KM12 colon, > 100 µM; with M19-MEL melanoma, > 100 µM; in the assay on OVCAR-3 ovarian, > 85.2 µM; in the assay on PC-3 prostate, 60.5 µM; with RXF 393 renal, 42.8 µM. For the same molecule, the TGI in the assay on SF-295 CNS was > 100 µM; in the assay with SNB-19 CNS it was > 100 µM; in the assay with SR leukemia it was 3.24 µM; with U251 CNS it was > 100 µM.
As for `Cc1ccc(C)c(NC(=O)CC2Sc3ccccc3NC2=O)c1` (stereo unspecified), the TGI with HOP-18 NSCLC is 36 µM and 70 µM; in the assay on KM12 colon, > 100 µM; with M19-MEL melanoma it was > 100 µM; in the assay with OVCAR-3 ovarian it was 23.7 µM and 58.4 µM; in the assay on PC-3 prostate, > 100 µM; in the assay on RXF 393 renal, 12.8 µM and 28.4 µM. The TGI in the assay with SF-295 CNS was > 100 µM; in the assay with SNB-19 CNS, 42.1 µM and 63.8 µM; in the assay with SR leukemia, > 100 µM; in the assay with U251 CNS, 25.4 µM and 52.2 µM. The GI50 in the assay with KM12 colon was 22.7 µM and > 100 µM; in the assay with M19-MEL melanoma it was 37 µM and > 100 µM; with OVCAR-3 ovarian it was 14.6 µM and 30.3 µM; in the assay on RXF 393 renal it was 6.39 µM and 14 µM.
Turning to `CC(=O)Oc1c(C)c(-c2ccccc2)c(C)c(-c2ccccc2)c1C(=S)c1ccccc1`, the TGI with HOP-18 NSCLC, in the assay with KM12 colon, with M19-MEL melanoma, in the assay with OVCAR-3 ovarian, in the assay with RXF 393 renal and with SF-295 CNS was > 100 µM each time. Moreover, the TGI with SNB-19 CNS, in the assay on SR leukemia and with U251 CNS was > 100 µM each time.
Regarding `C=CC[P@]1(=O)O[C@H](c2ccccc2)[C@H](C)N1C`, the TGI with HOP-18 NSCLC, in the assay with KM12 colon, in the assay on M19-MEL melanoma, in the assay on OVCAR-3 ovarian, in the assay on RXF 393 renal and in the assay on SF-295 CNS was > 100 µM each time. The TGI with SNB-19 CNS, in the assay with SR leukemia and in the assay on U251 CNS was > 100 µM throughout.
Turning to `O=C(Nc1ccc(Cl)cc1)C1C(=O)C(=O)N(c2ccc(Cl)cc2)C1=O` (stereo unspecified), the TGI in the assay with HOP-18 NSCLC, in the assay on KM12 colon, in the assay with M19-MEL melanoma, in the assay on OVCAR-3 ovarian, with RXF 393 renal and with SF-295 CNS was > 100 µM throughout. Moreover, the TGI in the assay with SNB-19 CNS, with SR leukemia and with U251 CNS was > 100 µM each time.
